In ChEMBL document CHEMBL4049405, “Investigation on cellular uptake and pharmacodynamics of DOCK2-inhibitory peptides conjugated with cell-penetrating peptides” (Bioorg Med Chem, 2017):
Positions of bridges follow the written chain, without caps; N, C: chain ends. Non-standard residues stand in square brackets, D forms with d. Residues, ends and D or L forms follow the SMILES beside them. *: point of attachment. X1 = O=C(OCCCS*)Oc1ccc2nc(C3=N[C@@H](C(=O)O)CS3)sc2c1; X2 = CC(=O)[C@H]1CSC(c2nc3ccc(OC(=O)OCCCS*)cc3s2)=N1; Mpa = O=C(O)CCS

Assays:
[1] = in vitro; conditions: human, HEK293T cells
Description: Cytotoxicity against HEK293T cells assessed as cell viability at 5.6 uM by CellTiter-Glo assay relative to control

[2] = Drug uptake in HEK293T cells expressing luciferase reporter gene at 50 uM measured every 3 mins for 60 mins by luminescence assay relative to 50 uM luciferin; format: ADME, cell-based; conditions: human, hek-293t, 1 h
[3] = in vitro; conditions: human, HEK293T cells; remark: listed apart in the source
Description: Cytotoxicity against HEK293T cells assessed as cell viability at 1.9 uM by CellTiter-Glo assay relative to control

[4] = in vitro; conditions: human, HEK293T cells; remark: listed apart in the source
Description: Cytotoxicity against HEK293T cells assessed as cell viability at 16.7 uM by CellTiter-Glo assay relative to control

[5] = Cytotoxicity against HEK293T cells assessed as cell viability at 50 uM by CellTiter-Glo assay relative to control; conditions: human
[6] = in vitro; conditions: human, HEK293T cells; remark: listed apart in the source
Description: Cytotoxicity against HEK293T cells assessed as cell viability at 25 uM by CellTiter-Glo assay relative to control

[7] = in vitro; conditions: human, HEK293T cells; remark: listed apart in the source
Description: Cytotoxicity against HEK293T cells assessed as cell viability at 12.5 uM by CellTiter-Glo assay relative to control

[8] = in vitro; conditions: human, HEK293T cells; remark: listed apart in the source
Description: Cytotoxicity against HEK293T cells assessed as cell viability at 6.3 uM by CellTiter-Glo assay relative to control

Row | fold change (FC) [2] | SMILES | viability at 5.6 µM [1] [%] | viability at 1.9 µM [3] [%] | viability at 16.7 µM [4] [%] | viability at 50 µM [5] [%] | viability at 25 µM [6] [%] | viability at 12.5 µM [7] [%] | viability at 6.3 µM [8] [%]
1 | 22.8 | CC(=O)N[C@@H](CSSCCCOC(=O)Oc1ccc2nc(C3=N[C@@H](C(C)=O)CS3)sc2c1)C(=O)N[C@H]1CSSC[C@@H](C(=O)N[C@@H](CCCNC(=N)N)C(=O)N[C@@H](CCCNC(=N)N)C(=O)N[C@@H](CCCNC(=N)N)C(N)=O)NC(=O)[C@H](Cc2c[nH]c3ccccc23)NC(=O)[C@@H]2CCCN2C(=O)[C@H](Cc2ccc(O)cc2)NC(=O)CNC(=O)[C@H](Cc2cnc[nH]2)NC(=O)[C@H](Cc2ccc(O)cc2)NC(=O)[C@H](CCCCN)NC(=O)[C@H](C)NC(=O)[C@H](C(C)C)NC1=O (Ac-C(X2)CVAKYHGYPWCRRR-NH2; disulfide 2-12) | – | – | – | 126 | 115 | 112 | 105
2 | 14.7 | CC(C)C[C@H](NC(=O)[C@H](CCCCN)NC(=O)[C@H](Cc1c[nH]c2ccccc12)NC(=O)CCSSCCCOC(=O)Oc1ccc2nc(C3=N[C@@H](C(=O)O)CS3)sc2c1)C(=O)N[C@@H](Cc1ccccc1)C(=O)N[C@@H](CC(N)=O)C(=O)N[C@@H](CCCCN)C(=O)N[C@@H](CCC(N)=O)C(=O)N[C@@H](CCC(=O)O)C(=O)N[C@@H](Cc1c[nH]c2ccccc12)C(=O)N[C@H](C(N)=O)[C@@H](C)O ([Mpa](X1)WKLFNKQEWT-NH2) | 99.6 | 100 | 104 | 102 | – | – | –
3 | 66.8 | CC(=O)N[C@@H](CSSCCCOC(=O)Oc1ccc2nc(C3=N[C@@H](C(C)=O)CS3)sc2c1)C(=O)N[C@H]1CSSC[C@@H](C(=O)N[C@@H](CCCNC(=N)N)C(=O)N[C@@H](CCCNC(=N)N)C(=O)N[C@@H](CCCNC(=N)N)C(=O)N[C@H](C(=O)N[C@@H](CCCNC(=N)N)C(=O)N[C@H](C(=O)N[C@@H](CC(C)C)C(=O)N[C@@H](CCCCN)C(=O)N[C@@H](CCCNC(=N)N)C(=O)N[C@@H](Cc2c[nH]c3ccccc23)C(=O)N[C@@H](CCCCN)C(=O)N[C@@H](CC(C)C)C(=O)N[C@@H](Cc2ccccc2)C(N)=O)C(C)C)[C@@H](C)O)NC(=O)[C@H](Cc2c[nH]c3ccccc23)NC(=O)[C@@H]2CCCN2C(=O)[C@H](Cc2ccc(O)cc2)NC(=O)CNC(=O)[C@H](Cc2cnc[nH]2)NC(=O)[C@H](Cc2ccc(O)cc2)NC(=O)[C@H](CCCCN)NC(=O)[C@H](C)NC(=O)[C@H](C(C)C)NC1=O (Ac-C(X2)CVAKYHGYPWCRRRTRVLKRWKLF-NH2; disulfide 2-12) | – | – | – | 85.9 | 97.1 | 108 | 99.1
4 | 18.2 | CC(C)C[C@H](NC(=O)[C@H](CCCCN)NC(=O)[C@H](Cc1c[nH]c2ccccc12)NC(=O)[C@H](CCCNC(=N)N)NC(=O)CCSSCCCOC(=O)Oc1ccc2nc(C3=N[C@@H](C(=O)O)CS3)sc2c1)C(=O)N[C@@H](Cc1ccccc1)C(=O)N[C@@H](CC(N)=O)C(=O)N[C@@H](CCCCN)C(=O)N[C@@H](CCC(N)=O)C(=O)N[C@@H](CCC(=O)O)C(=O)N[C@@H](Cc1c[nH]c2ccccc12)C(N)=O ([Mpa](X1)RWKLFNKQEW-NH2) | 93.6 | 92.3 | 92.8 | 102 | – | – | –
5 | 11.2 | CC(C)C[C@H](NC(=O)[C@H](CO)NC(=O)CNC(=O)CCSSCCCOC(=O)Oc1ccc2nc(C3=N[C@@H](C(=O)O)CS3)sc2c1)C(=O)N[C@@H](CCCCN)C(=O)N[C@H](C(=O)N[C@@H](CCCNC(=N)N)C(=O)N[C@H](C(=O)N[C@@H](CC(C)C)C(=O)N[C@@H](CCCCN)C(=O)N[C@@H](CCCNC(=N)N)C(N)=O)C(C)C)[C@@H](C)O ([Mpa](X1)GSLKTRVLKR-NH2) | 100 | 101 | 93.1 | 87 | – | – | –

The remaining lines, values behind:

Row | SMILES | fold change (FC) [2] | viability at 5.6 µM [1] [%] | viability at 1.9 µM [3] [%] | viability at 16.7 µM [4] [%] | viability at 50 µM [5] [%] | viability at 25 µM [6] [%] | viability at 12.5 µM [7] [%] | viability at 6.3 µM [8] [%]
6 | CC(C)C[C@H](NC(=O)[C@H](CCCCN)NC(=O)[C@H](Cc1c[nH]c2ccccc12)NC(=O)[C@H](CCCNC(=N)N)NC(=O)[C@H](CCCCN)NC(=O)[C@H](CC(C)C)NC(=O)[C@@H](NC(=O)[C@H](CCCNC(=N)N)NC(=O)[C@@H](NC(=O)CCSSCCCOC(=O)Oc1ccc2nc(C3=N[C@@H](C(=O)O)CS3)sc2c1)[C@@H](C)O)C(C)C)C(=O)N[C@@H](Cc1ccccc1)C(N)=O ([Mpa](X1)TRVLKRWKLF-NH2) | 216.3 | 92.4 | 94.3 | 97.3 | 88.5 | – | – | –
7 | CC(C)C[C@H](NC(=O)CCSSCCCOC(=O)Oc1ccc2nc(C3=N[C@@H](C(=O)O)CS3)sc2c1)C(=O)N[C@@H](CCCCN)C(=O)N[C@H](C(=O)N[C@@H](CCCNC(=N)N)C(=O)N[C@H](C(=O)N[C@@H](CC(C)C)C(=O)N[C@@H](CCCCN)C(=O)N[C@@H](CCCNC(=N)N)C(=O)N[C@@H](Cc1c[nH]c2ccccc12)C(=O)N[C@@H](CCCCN)C(N)=O)C(C)C)[C@@H](C)O ([Mpa](X1)LKTRVLKRWK-NH2) | 30.1 | 80 | 88.5 | 79.1 | 87.8 | – | – | –
8 | CC(C)C[C@H](NC(=O)CCSSCCCOC(=O)Oc1ccc2nc(C3=N[C@@H](C(=O)O)CS3)sc2c1)C(=O)N[C@@H](CCCCN)C(=O)N[C@@H](CCCNC(=N)N)C(=O)N[C@@H](Cc1c[nH]c2ccccc12)C(=O)N[C@@H](CCCCN)C(=O)N[C@@H](CC(C)C)C(=O)N[C@@H](Cc1ccccc1)C(=O)N[C@@H](CC(N)=O)C(=O)N[C@@H](CCCCN)C(=O)N[C@@H](CCC(N)=O)C(N)=O ([Mpa](X1)LKRWKLFNKQ-NH2) | 34.5 | 93.7 | 94.2 | 88.1 | 94 | – | – | –
9 | CC(C)C[C@H](NC(=O)[C@H](CCCCN)NC(=O)[C@H](Cc1c[nH]c2ccccc12)NC(=O)[C@H](CCCNC(=N)N)NC(=O)[C@H](CCCCN)NC(=O)[C@H](CC(C)C)NC(=O)[C@@H](NC(=O)CCSSCCCOC(=O)Oc1ccc2nc(C3=N[C@@H](C(=O)O)CS3)sc2c1)C(C)C)C(=O)N[C@@H](Cc1ccccc1)C(=O)N[C@@H](CC(N)=O)C(=O)N[C@@H](CCCCN)C(N)=O ([Mpa](X1)VLKRWKLFNK-NH2) | 30.3 | 98.5 | 88.6 | 99.6 | 95.9 | – | – | –
10 | CC(C)C[C@H](NC(=O)[C@H](CCCCN)NC(=O)CCSSCCCOC(=O)Oc1ccc2nc(C3=N[C@@H](C(=O)O)CS3)sc2c1)C(=O)N[C@@H](Cc1ccccc1)C(=O)N[C@@H](CC(N)=O)C(=O)N[C@@H](CCCCN)C(=O)N[C@@H](CCC(N)=O)C(=O)N[C@@H](CCC(=O)O)C(=O)N[C@@H](Cc1c[nH]c2ccccc12)C(=O)N[C@H](C(=O)N[C@@H](CC(N)=O)C(N)=O)[C@@H](C)O ([Mpa](X1)KLFNKQEWTN-NH2) | 9.7 | 98.8 | 93 | 97.6 | 99.4 | – | – | –
11 | CC(C)C[C@H](NC(=O)[C@H](CCCCN)NC(=O)[C@H](Cc1c[nH]c2ccccc12)NC(=O)[C@H](CCCNC(=N)N)NC(=O)[C@H](CCCCN)NC(=O)CCSSCCCOC(=O)Oc1ccc2nc(C3=N[C@@H](C(=O)O)CS3)sc2c1)C(=O)N[C@@H](Cc1ccccc1)C(=O)N[C@@H](CC(N)=O)C(=O)N[C@@H](CCCCN)C(=O)N[C@@H](CCC(N)=O)C(=O)N[C@@H](CCC(=O)O)C(N)=O ([Mpa](X1)KRWKLFNKQE-NH2) | 13.6 | 106 | 95.8 | 93.7 | 93.8 | – | – | –
12 | CC(C)C[C@H](NC(=O)[C@H](CO)NC(=O)CCSSCCCOC(=O)Oc1ccc2nc(C3=N[C@@H](C(=O)O)CS3)sc2c1)C(=O)N[C@@H](CCCCN)C(=O)N[C@H](C(=O)N[C@@H](CCCNC(=N)N)C(=O)N[C@H](C(=O)N[C@@H](CC(C)C)C(=O)N[C@@H](CCCCN)C(=O)N[C@@H](CCCNC(=N)N)C(=O)N[C@@H](Cc1c[nH]c2ccccc12)C(N)=O)C(C)C)[C@@H](C)O ([Mpa](X1)SLKTRVLKRW-NH2) | 16.7 | 89.6 | 84 | 84.3 | 83.8 | – | – | –
13 | CC(C)C[C@H](NC(=O)[C@H](CCCCN)NC(=O)[C@H](Cc1c[nH]c2ccccc12)NC(=O)[C@H](CCCNC(=N)N)NC(=O)[C@H](CCCCN)NC(=O)[C@H](CC(C)C)NC(=O)[C@@H](NC(=O)[C@H](CCCNC(=N)N)NC(=O)CCSSCCCOC(=O)Oc1ccc2nc(C3=N[C@@H](C(=O)O)CS3)sc2c1)C(C)C)C(=O)N[C@@H](Cc1ccccc1)C(=O)N[C@@H](CC(N)=O)C(N)=O ([Mpa](X1)RVLKRWKLFN-NH2) | 198.2 | 94.4 | 93.5 | 92.5 | 86 | – | – | –
14 | CC(C)C[C@H](NC(=O)[C@H](CCCCN)NC(=O)[C@H](Cc1c[nH]c2ccccc12)NC(=O)[C@H](CCCNC(=N)N)NC(=O)[C@H](CCCCN)NC(=O)[C@H](CC(C)C)NC(=O)[C@@H](NC(=O)[C@H](CCCNC(=N)N)NC(=O)[C@@H](NC(=O)[C@H](CCCCN)NC(=O)CCSSCCCOC(=O)Oc1ccc2nc(C3=N[C@@H](C(=O)O)CS3)sc2c1)[C@@H](C)O)C(C)C)C(N)=O ([Mpa](X1)KTRVLKRWKL-NH2) | 30.7 | 85.3 | 77.7 | 80.5 | 80.1 | – | – | –
